# Experiments:
# Experiment in all cases: cells
# Design in all cases: species or system melanoma cell lines (3D spheres); 3D melanoma tumour sphere viability, CellTiter-Glo 3D luminescence, 7-point dose response
# A15 = settings: 3D tumour spheres, 72 h
# Procedure: (§1) Dose responses to TRX-E-009-1 and TRX-E-002-1 were performed using 3D tumour sphere cultures of 21 melanoma cell lines. Cells were dissociated and seeded[17] at previously optimized densities into 384-well Ultra-Low Attachment plates (#3827, Corning). Cells were treated the following day with a 7 point 3-fold dilution series, 5.4 µM to 7.4 nM using a Sciclone ALH 3000 [compound left out] handling robot. Changes in cell viability were assayed at 72 hours using the Cell Titre Glo 3D assay (#G9683, Promega), luminescence reads were performed on a SynergyMx Plate Reader (BioTek Instruments). Luminescence values were normalized to the DMSO/vehicle control prior to comparisons. […] A second independent panel of melanoma cell lines grown as tumour spheres was assessed for sensitivity to both TRX-E-009-1 and TRX-E-002-1. […] As found with the Oncopanel melanoma cell lines, a subset (one third) of the cell lines were sensitive to killing by these BP compounds, with <20% viability at the highest concentration tested. These lines will be referred to as sensitive. The cell lines with >25% viability at the highest dose appear comparatively resistant to killing by the compounds and are referred to as resistant. Subsequent experiments utilized A2058, D04, SKMEL13, and A375 as representative of sensitive cell lines, while A15, SKMEL28, C013, and C002 were used to assess the effects of TRX-E-009-1 and TRX-E-002-1 on resistant lines.
# A2058 = settings: Homo sapiens, A2058; 3D tumour spheres, 72 h
# Procedure: as §1
# A375 = settings: Homo sapiens, A-375; 3D tumour spheres, 72 h
# Procedure: as §1
# BL = settings: 3D tumour spheres, 72 h
# Procedure: as §1
# C002 = settings: 3D tumour spheres, 72 h
# Procedure: as §1
# C013 = settings: 3D tumour spheres, 72 h
# Procedure: as §1
# C045 = settings: 3D tumour spheres, 72 h
# Procedure: as §1
# C052 = settings: 3D tumour spheres, 72 h
# Procedure: as §1
# C054 = settings: 3D tumour spheres, 72 h
# Procedure: as §1
# D04 = settings: 3D tumour spheres, 72 h
# Procedure: as §1
# D20 = settings: 3D tumour spheres, 72 h
# Procedure: as §1
# D25 = settings: 3D tumour spheres, 72 h
# Procedure: as §1
# D28 = settings: 3D tumour spheres, 72 h
# Procedure: as §1
# HT144 = settings: Homo sapiens, HT-144; 3D tumour spheres, 72 h
# Procedure: as §1
# MM329 = settings: 3D tumour spheres, 72 h
# Procedure: as §1
# MM370 = settings: 3D tumour spheres, 72 h
# Procedure: as §1
# MM415 = settings: 3D tumour spheres, 72 h
# Procedure: as §1
# MM603 = settings: 3D tumour spheres, 72 h
# Procedure: as §1
# MM96L = settings: Homo sapiens, MM96L; 3D tumour spheres, 72 h
# Procedure: as §1
# SKMEL13 = settings: 3D tumour spheres, 72 h
# Procedure: as §1
# SKMEL28 = settings: Homo sapiens, SK-MEL-28; 3D tumour spheres, 72 h
# Procedure: as §1
structure (smiles),measurement,setting,value
COc1cc([C@@H]2COc3c(ccc(O)c3C)[C@@H]2c2ccc(O)c(F)c2)cc(OC)c1O (racemic) [TRX-E-009-1],IC50,A15,489 nM
same,IC50,A2058,292 nM
same,IC50,A375,321 nM
same,IC50,BL,340 nM
same,IC50,C002,977 nM
same,IC50,C013,318 nM
same,IC50,C045,461 nM
same,IC50,C052,292 nM
same,IC50,C054,857 nM
same,IC50,D04,253 nM
same,IC50,D20,1110 nM
same,IC50,D25,5020 nM
same,IC50,D28,787 nM
same,IC50,HT144,233 nM
same,IC50,MM329,178 nM
same,IC50,MM370,290 nM
same,IC50,MM415,323 nM
same,IC50,MM603,284 nM
same,IC50,MM96L,281 nM
same,IC50,SKMEL13,244 nM
same,IC50,SKMEL28,4580 nM

# Source: article PMC5865165, “Mechanism of action of the third generation benzopyrans and evaluation of their broad anti-cancer activity in vitro and in vivo” (Scientific Reports, 2018)
